Molecules are shown by their SMILES.

Our source for the IC50 values is article PMC3037362, “Small Molecule Inhibitors of Staphylococcus aureus RnpA Alter Cellular mRNA Turnover, Exhibit Antimicrobial Activity, and Attenuate Pathogenesis” (PLoS Pathogens, 2011).

Test [1] has as its target T1, RnpA (protein component of ribonuclease P) (Staphylococcus aureus, UniProt P0A0H5).
T1 construct: recombinant full-length predicted open reading frame, N-terminal hexahistidine tag
The test is described as follows: RiboGreen fluorescence RNA degradation screen; agarose gel titration of spa mRNA degradation by purified RnpA. In kind it is biochemical. The text has this:
RiboGreen fluorescence RNA degradation screen; agarose gel titration of spa mRNA degradation by purified RnpA on RnpA (protein component of ribonuclease P) | five of these molecules were bona-fide inhibitors of RnpA-mediated RNA degradation (Figure 3B). One of these compounds, RNPA1000

Another test addresses T2, RNase III (Escherichia coli, UniProt P0A7Y0).
T2 construct: gene rnc
Put plainly: in vitro ribonuclease activity of commercial enzyme (off-target counter-assay, data not shown). It counts as biochemical.

T2 sequence (P0A7Y0 whole entry): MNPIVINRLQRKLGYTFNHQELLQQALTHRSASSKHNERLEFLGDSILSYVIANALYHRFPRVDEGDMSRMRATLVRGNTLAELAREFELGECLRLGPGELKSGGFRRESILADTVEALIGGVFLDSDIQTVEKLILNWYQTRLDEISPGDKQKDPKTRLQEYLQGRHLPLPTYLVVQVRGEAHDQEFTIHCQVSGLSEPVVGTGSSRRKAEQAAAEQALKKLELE
T1 sequence (P0A0H5 whole entry): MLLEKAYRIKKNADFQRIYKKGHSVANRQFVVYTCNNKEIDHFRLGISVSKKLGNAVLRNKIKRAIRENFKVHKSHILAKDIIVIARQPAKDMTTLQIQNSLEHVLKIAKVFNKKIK

With `Cc1cc(/C=C(/C#N)C(=O)Nc2cccc(Br)c2)c(C)n1-c1ccc(C(=O)O)cc1` [RNPA1000], the values for the concentration for half-maximal inhibition (IC50) (in test [1]; on RNase III) were 100 to 125 µM and 500 to 750 µM, respectively.
